{"source": "patent US20090098050A1", "about": "“CALCIUM BINDING PEPTIDES” (THE REGENTS OF THE UNVERSITY OF CALIFORNIA, priority 2005, published 2009)", "key": {"[1]": {"assay": "Tissue specificity of binding in demineralized and nondemineralized teeth (CLSM)", "parameters": "species or system human", "conditions": "12.5 μM labeled peptide", "experimental": "FIG. 6: Tissue specificity of 8DSS peptide binding and its dependence on mineralization state. Demineralized and nondemineralized human teeth samples were incubated with 12.5 μM 5(6)-carboxyfluorescein-labeled 8DSS peptide as described in Example 9, and sections were rinsed and imaged by CLSM. […] The dentin-enamel junction, labeled DEJ, is clearly demarcated in both cases.\nSagitally sectioned human teeth were either demineralized by incubation with 0.5 M EDTA for 15 minutes or left nondemineralized. Samples were then incubated for ten minutes in a solution of 12.5 μM 5(6)-carboxyfluorescein-labeled 8DSS, 10 mM NaCl, and 50 mM HEPES, pH 7.0. Control samples were incubated without peptide. Sections were then rinsed and imaged by CLSM using identical laser and camera settings."}, "[2]": {"assay": "Tissue specific binding of DSS peptides and variants in human teeth (CLSM)", "conditions": "12.5 μM labeled peptide", "experimental": "FIG. 8: Fluorescence micrographs showing tissue specificity in the binding of DSS peptides and variants. Adult human teeth were exposed to 12.5 μM 5(6)-carboxyfluorescein-labeled peptide without demineralization, washed extensively, and imaged by CLSM. For each section, multiple scans were collected and assembled in an automated mode to generate panels of images representing an area of 13×13 mm, sufficient in most cases to encompass the whole section. The peptides used for each section are labeled beneath each panel, and within each panel the tooth is oriented with the root toward the top of the image and the crown toward the bottom. Tissue layers are labeled as follows: RTD=Root Tip Dentin; CPD=Circumpulpal Dentin; MD=Mantle Dentin; P=Pulp Cavity Wall; DEJ=Dentin-Enamel Junction; E=Enamel; BE=Basal Enamel; CE=Cortical Enamel; CL=Carious Lesion; PB=Periodontal Bone.\nIn order to investigate the tissue specificity of DSS peptide binding to tooth tissue, sections of human teeth were exposed to DSS peptides and variants, then imaged by CLSM as described in Example 2. The peptides utilized for these experiments were 8DSS, 8ASS, 8DAA, 8NAA, 4DSS, 4ESS, 4NSS, 4DTT, 4ETT, 4NTT, and 6DSS. Sagittal sections of human teeth extracted during normal clinical practice were polished and then incubated for ten minutes in a solution of the appropriate 5(6) carboxyfluorescein-labeled peptide (12.5 μM) containing 10 mM NaCl and 50 mM HEPES, pH 7.0. Control samples were prepared without peptide. Samples were washed extensively after treatment and imaged by CLSM using blue laser illumination (λ=488 nm) and a FITC emission filter, with identical camera and microscope settings for each sample. For each section, multiple scans were collected and assembled in an automated mode to generate panels of images representing an area of 13×13 mm, sufficient in most cases to encompass the whole section. […] Significant binding was also seen to the edges of the pulp cavity."}, "[3]": {"assay": "Binding to inorganic phosphate precipitates (relative fluorescence)", "conditions": "12.5 μM labeled peptide, ten minutes, about 0.5% (w/v) salt", "experimental": "FIG. 10: Relative levels of 8DSS peptide binding to various inorganic phosphate precipitates. 100 mM sodium phosphate (pH 7.5) was combined with 100 mM solutions of MgCl2, CaCl2, MnCl2, CoCl2, NiSO4, CuSO4, and SrCl2, respectively. Suspensions were made of each phosphate salt at a concentration of approximately 0.5% (w/v) in the presence of 12.5 μM 5(6)-carboxyfluorescein-labeled 8DSS peptide. After a ten minute incubation at room temperature, samples were washed and imaged by fluorescence microscopy. The intensity of the fluorescent staining of the inorganic phosphate particles in each sample was assessed by measuring the pixel intensity values using the GIMP (www.gimp.org) as described in Example 11. Normalized fluorescence values are plotted here. […] On the Y-axis, the relative fluorescence intensity values are plotted.\nPhosphate salts of magnesium, calcium, manganese, cobalt, nickel, copper, and strontium were prepared by combining 100 mM sodium phosphate (pH 7.5) with 100 mM solutions of the chloride or sulfate salts of the aforementioned metal ions (MgCl2, CaCl2, MnCl2, CoCl2, NiSO4, CuSO4, and SrCl2, respectively). […] Each sample was incubated for ten minutes at room temperature, then washed twice with a solution of 50 mM HEPES pH 7.0 and 10 mM NaCl, resuspended in the same buffer, and imaged by fluorescence microscopy. […]"}, "[4]": {"assay": "Binding to calcium oxalate crystals (fluorescence microscopy)", "conditions": "12.5 μM labeled peptide, ten minutes", "experimental": "FIG. 11: Binding of 8DSS peptide to calcium oxalate. Calcium oxalate crystals were exposed to 12.5 μM 8DSS peptide, washed, and imaged by fluorescence microscopy as described in Example 12. […] The brightfield image (top) confirms the presence of crystals, while the fluorescence image of the same region (bottom) confirms that calcium oxalate has no visible fluorescence under these conditions. […] Calcium oxalate was prepared using a previously described method (Wang 2006). Crystals of calcium oxalate were washed with deionized water, then resuspended in a solution containing 50 mM HEPES pH 7.0, 10 mM NaCl, and 12.5 μM 5(6)-carboxyfluorescein-labeled 8DSS peptide. The crystal suspension was incubated at room temperature for ten minutes. The crystals were then harvested by centrifugation, washed twice with a solution of 50 mM HEPES pH 7.0 and 10 mM NaCl, and visualized by fluorescence microscopy as described in Example 11."}}, "data": [{"substance": "8DSS: peptide containing eight Asp-Ser-Ser (DSS) repeats, SEQ ID NO:15 (DSSDSSDSSDSSDSSDSSDSSDSS; calcium binding peptide containing eight DSS repeats, 8DSS)", "values": [{"measurement": "Binding pattern in demineralized tooth tissue", "setting": "[1]; demineralized sample", "result": "Primary binding is to the demineralized enamel (E) with little binding to the dentin (D)"}, {"measurement": "Binding pattern in nondemineralized tooth tissue", "setting": "[1]; nondemineralized sample", "result": "primary binding is to the dentin (D) with little or no binding to the enamel (E)"}, {"measurement": "Tissue binding pattern in healthy tooth section", "setting": "[2]; nondemineralized teeth", "result": "bound primarily to the mantle dentin"}, {"measurement": "Level of binding (staining) to tooth surfaces", "setting": "[2]; ten minutes, identical settings", "result": "greatest levels of staining"}, {"measurement": "Fluorescent staining of CaHPO4 and SrHPO4 aggregates", "setting": "[3]", "result": "highest levels of staining"}, {"measurement": "Fluorescent staining of NiHPO4 aggregates", "setting": "[3]", "result": "small level of staining"}, {"measurement": "Staining of calcium oxalate aggregates", "setting": "[4]", "result": "significant staining"}]}]}
